Ends that are not written are not given here.
Experiments:
Escherichia coli = assay: microbe, parasite or virus in culture; format: cell-based
Description: (§1) Bacterial isolates of Escherichia coli, Klebsiella pneumonia, Serratia marcescens, Pseudomonas aeruginosa, Enterobacter cloacae, and Enterobacter aerogenes, which were obtained from clinical cases of bovine mastitis, were used to assess the bactericidal activity of peptides in a broth microdilution assay. Isolates were obtained from repositories at Cornell University (gift of Dr. Y. H. Schukken; Quality Milk Production Services Program, Cornell University, Ithaca N.Y.) and the USDA Beltsville Agricultural Research Center. […] A. J. Bramley, Institute for Animal Health, Compton Laboratory, Newbury, England), which was originally isolated from a clinical case of mastitis ([…]. Dairy Res. 43: 205-211) was also used to assess the bactericidal activity of the peptides in biological fluids. Reference strains of E. coli (ATCC 25922) and Staphylococcus aureus (ATCC 29213) were obtained from a commercial source (American Type Culture Collection (ATCC), Manassas, Va.). To obtain fresh inoculums for evaluation, a sterile loop of each bacterial glycerol stock was streaked on a blood agar plate. After an overnight incubation at 35° C., a single uniform colony was picked and sub-passaged by streaking on a new blood agar plate and incubating the plate overnight at 35° C. To evaluate the antimicrobial activity of the peptides against various clinical mastitis bacterial isolates, the minimum inhibitory concentration (MIC) and the minimum bactericidal concentration (MBC) of these peptides against the isolates were determined using a standardized broth microdilution assay. In addition to the mastitis isolates, E. coli (ATCC 25922) and S. aureus (ATCC 29213) reference strains were evaluated. […] The assays were performed in accordance with Clinical and Laboratory Standards Institute (CLSI) [formerly National Committee for Clinical Laboratory Standards (NCCLS)] guidelines (National Committee for Clinical Laboratory Standards. 1999. Methods for Determining Bacterial Activity of Antimicrobial Agents: Approved Guideline. Wayne, Pa.; National Committee for Clinical Laboratory Standards. 2002. Performance Standards for Antimicrobial Disk and Dilution Susceptibility Tests for Bacteria Isolated from Animals: Approved Standard. 2nd Edition, Wayne, Pa.). […] The bacterial suspension was then diluted 100-fold in cation-adjusted Mueller-Hinton broth to reach a final inoculum concentration of 10^6 CFU/ml. […] A negative control column was included in the plate that included 100 μl of broth alone. The plates were incubated for 18 h at 35° C. with ambient air circulation and without shaking. The wells were subsequently inspected for cloudiness and pellet formation using a magnifying glass plate reader. The lowest concentration at which no pellet or cloudiness was apparent in a given well was identified as the MIC. […] The plates were incubated overnight at 35° C. and colonies subsequently enumerated. The MBC values were determined as the lowest concentration at which ≧99.9% of inoculated bacteria were killed. All assays were performed in triplicate and the MIC and MBC range reported.

Klebsiella pneumoniae = assay: microbe, parasite or virus in culture; format: cell-based
Description: as §1

KWKARKNFIKGSSLGWLIQLFRKR [bBPI90-99,148-161]
MIC and MBC values (Escherichia coli): ≤ 64 µg/mL | MIC and MBC values (Klebsiella pneumoniae): ≤ 64 µg/mL

NSQIRPLPDKGLDLSIRDASIKIRGKWKARKNFIK [bBPI65-99]
MBC (Escherichia coli): >256 µg/mL | MIC (Escherichia coli): >256 µg/mL | MBC (Klebsiella pneumoniae): >256 µg/mL | MIC (Klebsiella pneumoniae): >256 µg/mL
